What was measured:
MV833 antibody = conditions: 20 μM peptide solution coated on plate
Method: The 67 peptides synthesized by the above procedures correspond to the entire region of human VPF 121. Therefore, by examining the reactivity of the 67 peptides with MV833 antibody, it is possible to identify the portion of VPF with which MV833 reacts. Then, the reactivity of the 67 peptides with MV833 antibody was examined by an enzyme immunoassay. Briefly, 20 μM peptide solutions each containing one of the 67 peptides were added to a 96-well NOS plate (Coaster) and left at room temperature for 2 hours. After each well was washed with 0.1% BSA-PBS 3 times, 2% BSA-PBS was added thereto and left at room temperature for 1 hour. After the removal of 2% BSA-PBS, MV833 (in 1% BSA-PBS solution) was added to the plate and left at room temperature for 1 hour. After each well was washed with 0.1% BSA-PBS 6 times, peroxidase-labelled sheep anti-mouse IgG (Amersham) (in 0.1% BSA-PBS) was added thereto and left at room temperature for 1 hour. After each well was washed with 0.1% BSA-PBS 6 times, 0.2 M Tris-citrate buffer (pH 5.2) containing 8.3 mg/ml orthophenylenediamine dihydrochloride and 0.01% hydrogen peroxide was added for coloring. The reaction was terminated by adding 2 N sulfuric acid and then absorbance (OD490/650) was measured.

[1] = tested on: Human fibrosarcoma (HT-1080); test: Antitumor test, joint use with an existing carcinostatic, HT-1080 in nude mice; conditions: mitomycin alone, 6 mg/kg, tail vein
Method: Human fibrosarcoma (HT-1080) subcutaneously subcultured in nude mice was cut out in a section of about 2 mm square and inoculated subcutaneously into 6 nude mice of another group using a trocar. On the next day of the inoculation, the existing carcinostatic mitomycin (3 mg/kg) or cisplatin (5 mg/kg) was injected into the tail vein once, and the monoclonal antibody of the invention was injected into the tail vein at a dose of 12.5 μg/mouse every 4 days from the next day of the transplantation.
In those groups which received an existing carcinostatic alone, 3 or 6 mg/kg of mitomycin or 5 or 10 mg/kg of cisplatin was administered in a similar manner as employed in the joint administration groups (i.e. every 4 days into the tail vein).
In the group which received the monoclonal antibody alone, 12.5 μg/mouse of the monoclonal antibody was administered similarly (i.e. every 4 days into the tail vein).
The tumor volume of each mouse was calculated by measuring the diameter of the tumor with the passage of time. At the same time, changes in body weight were also observed.

| Molecule | reactivity with MV833 antibody (absorbance OD490/650, FIG. 1) (MV833 antibody) | antitumor activity (tumor volume, FIG. 3) [1] | changes in body weight (FIG. 4) [1] |
| --- | --- | --- | --- |
| YIFKPSCVPLMR [Peptide 31] | reacted strongly |  |  |
| KCECRPKKDRAR [Peptide 63] | reacted strongly |  |  |
| FKPSCVPLMRCG [Peptide 32] | reacted strongly |  |  |
| CO[C@@]12[C@H](COC(N)=O)C3=C(C(=O)C(C)=C(N)C3=O)N1C[C@@H]1N[C@@H]12 [mitomycin] |  | strong antitumor activity was observed | loss in body weight was also observed |
| SFLQHNKCECRP [Peptide 60] | reacted strongly |  |  |
| KPSCVPLMRCGG [Peptide 33] | reacted strongly |  |  |
